Entries after “also recorded” stand apart in the source; their conditions may differ.

This is an account of results in patent US20080038809A1, “ISOLATED LECTIN POLYPEPTIDES CONSISTING OF TRUNCATED […] UDP-GalNAc:POLYPEPTIDE N- ACETYLGALACTOSAMINYLTRANSFERASES” (GLYCOZYM APS, priority 2002, published 2008).

The subject of one series is MUC5AC in HT29MTX cells. The series is described as follows: Immuno-fluorescence staining of MUC5AC with CLH2 (FIG. 18). Type of series: cell-based, human. Particulars: 5 mM, continuous culture. From the text: FIG. 18 illustrates immuno-fluorescence staining of HT29MTX cells treated with inhibitors as indicated and stained with the anti-MUC5AC monoclonal antibody, CLH2.
In order to evaluate GalNAcβ-benzyl as an inhibitor of mucin glycosylation and secretion we used the cultured colon carcinoma cells of mucin secreting phenotypes: HT-29 metotrexate (MTX) cells selected from the HT-29 cell line by culture in the presence of MTX (kind gift from G. Huet, France). The HT-29 MTX cells were selected to yield a goblet cell like phenotype with constitutive production of MUC5AC. In order to ensure proper goblet cell differentiation the HT29MTX cell line were continuously grown up to 21 days in the presence of 5 mM GalNAcα-benzyl, 5 mM GalNAcβ-benzyl, 5 mM GlcNAcα-benzyl and without inhibitor using culture conditions as described in Hennebicq-Reig et al. (Permanent exposure of mucin-secreting HT-29 cells to benzyl-N-acetyl-alpha-D-galactosaminide induces abnormal O-glycosylation of mucins and inhibits constitutive and stimulated MUC5AC secretion. Biochem J. 1998; 334:283-95). At 7, 14 and 21 days of continuous culture, media was collected and cells were fixed in 3% paraformaldehyde and stained for the presence of MUC5AC and specific carbohydrate structures using immuno-histochemistry with the following monoclonal antibodies: CLH2 recognizing MUC5AC (Reis C. et al. Immunohistochemical study of MUC5AC expression in human gastric carcinomas using a novel monoclonal antibody. Int. J. Cancer. 1997; 74:112-21), 1E3 recognizing Tn (GalNAcα linked to serine or threonine), 3C9 recognizing T (Galβ1-3GalNAcα linked to serine or threonine, and 3F1 recognizing Sialyl-Tn (NeuAcα2-6GalNAcα linked to serine or threonine. […] Furthermore the viscosity of the media from cells with and without inhibitor was evaluated using viscosity micro-measurement.

For series [1], the system named is MUC5AC secretion, HT29MTX cells. The experiment in a line: MUC5AC secretion from HT29MTX cells by SDS-PAGE Western blotting of media. The series is classed as cell-based, human. Particulars: 5 mM, 14 days, LUM5-1 antibody. As to the method:
FIG. 17 illustrates SDS-PAGE Western analysis of MUC5AC secretion from HT29MTX cells using polyclonal anti-MUC5AC antibody LUM5-1. In order to evaluate GalNAcβ-benzyl as an inhibitor of mucin glycosylation and secretion we used the HT-29 metotrexate (MTX) cultured colon carcinoma cells of mucin secreting phenotype. HT-29 MTX cells have a goblet cell like phenotype with constitutive production of MUC5AC. Cells were continuously grown up to 21 days in the presence of 5 mM GalNAcα-benzyl, 5 mM GalNAcβ-benzyl, 5 mM GlcNAcα-benzyl and without inhibitor. […] In striking contrast, MUC5AC was not detected in the media from cells treated with GalNAcα-benzyl (Lane 3) or GalNAcβ-benzyl (Lane 4). Results shown are from media collected at 14 days.
In order to evaluate GalNAcβ-benzyl as an inhibitor of mucin glycosylation and secretion we used the cultured colon carcinoma cells of mucin secreting phenotypes: HT-29 metotrexate (MTX) cells selected from the HT-29 cell line by culture in the presence of MTX (kind gift from G. Huet, France). The HT-29 MTX cells were selected to yield a goblet cell like phenotype with constitutive production of MUC5AC. In order to ensure proper goblet cell differentiation the HT29MTX cell line were continuously grown up to 21 days in the presence of 5 mM GalNAcα-benzyl, 5 mM GalNAcβ-benzyl, 5 mM GlcNAcα-benzyl and without inhibitor using culture conditions as described in Hennebicq-Reig et al. (Permanent exposure of mucin-secreting HT-29 cells to benzyl-N-acetyl-alpha-D-galactosaminide induces abnormal O-glycosylation of mucins and inhibits constitutive and stimulated MUC5AC secretion. Biochem J. 1998; 334:283-95). […] Furthermore the viscosity of the media from cells with and without inhibitor was evaluated using viscosity micro-measurement.
A general note: Immunoblotting shows a protein as a band on a membrane.

Series [2] has as its system MUC1 expression in CHO1d1D/MUC1F-clone2 cells. The experiment in a line: MUC1 expression in cell lysates by immunoprecipitation, SDS-PAGE and western blot. The series is classed as cell-based, Chinese hamster (CHO 1d1D cells); human MUC1. The note with it: 2 mM; for MUC1 expression: cells in GalNAc or Gal and GalNAc; for SDS-PAGE migration of MUC1 (O-glycan extension): cells in Gal and GalNAc. As to the method:
FIG. 12 is an SDS-PAGE Western analysis of GalNAcα-benzyl inhibition of MUC1 expression in CHO 1d1D cells stably transfected with a full coding MUC1 construct. […] Cells were further treated with 2 mM GalNAcα-benzyl (lanes 1, 4, 7, 10), 2 mM GlcNAcα-benzyl (lanes 2, 5, 8, 11) or no inhibitor (lanes 3, 6, 9, 12). Cells were washed and lysed at 24 or 48 hours and the lysates subjected to immunoprecipitation with monoclonal antibody HMFG2, which broadly recognize MUC1 glycoforms. Immunoprecipitates were analysed by SDS-PAGE and western blot using HMFG2 antibody to detect MUC1 expression. Lane M indicates molecular markers with assigned mw. Lane C includes a control MUC1 180-mer tandem repeat peptide which has been GalNAc-glycosylated with 3 moles GalNAc per repeat using GalNAc-T2. The sharp bands migrating at 100-200 kd are immunoglobulins indicated by IgG.
FIG. 13 is a SDS-PAGE Western analysis resulting from the same experiment as in FIG. 12, but using a novel monoclonal antibody, 5E5, to visualize MUC1 expression. […] Cells were further treated with 2 mM GalNAcα-benzyl (lanes 1, 4), 2 mM GlcNAcα-benzyl (lanes 2, 5) or no inhibitor (lanes 3, 6). Cells were washed and lysed at 48 hours and the lysates subjected to immunoprecipitation with monoclonal antibody HMFG2, which broadly recognize MUC1 glycoforms. Immunoprecipitates were analysed by SDS-PAGE and western blot using 5E5 antibody, which selectively recognize GalNAc-glycosylated MUC1 expression and show no reactivity with unglycosylated MUC1 peptides. Lanes M and C as described in legend to FIG. 12.
Cells were further treated with 2 mM GalNAcα-benzyl (lanes 1, 4, 7, 10), 2 mM GalNAcβ-benzyl (lanes 2, 5, 8, 11) or 2 mM GlcNAcα-benzyl (lanes 3, 6, 9, 12). Cells were washed and lysed at 36 hours and the lysates subjected to immunoprecipitation with monoclonal antibodies HMFG2 (lanes 1-6) or 5E5 (lanes 7-12). Immunoprecipitates were analysed by SDS-PAGE and western blot using HMFG2 antibody. Lanes M and C as described in legend to FIG. 7.
FIG. 15 is an SDS-PAGE Western analysis resulting from the same experiment as FIG. 14, except that expression is visualized by the monoclonal antibody 5E5. […] Cells were further treated with 2 mM GalNAcα-benzyl (lanes 1, 4, 7, 10), 2 mM GalNAcβ-benzyl (lanes 2, 5, 8, 11) or 2 mM GlcNAcα-benzyl (lanes 3, 6, 9, 12). Cells were washed and lysed at 36 hours and the lysates subjected to immunoprecipitation with monoclonal antibodies HMFG2 (lanes 1-6) or 5E5 (lanes 7-12). Immunoprecipitates were analysed by SDS-PAGE and western blot using 5E5 antibody. Lanes M and C as described in legend to FIG. 12.
We therefore investigated the effect of treatment with GalNAcα-benzyl of CHO1d1D/MUC1F-clone2 cells grown in the presence of GalNAc. CHO1d1D/MUC1F-clone2 cells were seeded in 6 well plates at a density of 0.2×10^6 per well and were grown for 6 hours in Hams F12 medium with serum until approximately 30% subconfluent. […] After 18 hours, the medium was replaced with fresh Optimem containing the sugars and benzyl derivatives as above and grown for 12-48 hours. Initially we analyzed surface expression of MUC1 by immunocytology. Cells were washed once in PBS-CMF (phosphate buffered saline Calcium and Magnesium free) after carefully removing the medium from the wells and subsequently fixed in 2 ml 3% paraformaldehyde at 25° C. for 20 min followed by three washes with PBS-CMF 3 times. Free aldehyde groups were quenched by incubating in 2 mL 50 mM Ammonium Chloride in PBS-CMF for 10 min, followed by three washes with PBS-CMF and three washes with 5 min incubations each with PBS-CMF containing 0.2% Fish Skin Gelatin (Sigma). Immunostaining of cells was performed by incubation with monoclonal antibodies for 40 min at 25° C., followed by three washes with PBS-CMF and three washes of 5 min each with PBS-CMF containing 0.2% Fish Skin Gelatin. […]

Where [3] appears, read: 36 hours, 5E5 blot, cells grown in GalNAc.

For `CC(=O)N[C@H]1[C@@H](OCc2ccccc2)O[C@H](CO)[C@H](O)[C@@H]1O` [BzlαGalNAc, benzyl-N-acetyl-alpha-D-galactosaminide], in the series on MUC5AC in HT29MTX cells, the “intracellular staining of MUC5AC” value is recorded as “increased intracellular staining” and the storage phenotype result is “induced a storage phenotype”.

As to `CC(=O)N[C@H]1[C@@H](OCc2ccccc2)O[C@H](CO)[C@H](O)[C@@H]1O` [GalNAcα-benzyl, benzyl-N-acetyl-alpha-D-galactosaminide], the MUC5AC in media result in series [1] is listed as “diminished secretion of MUC5AC”. The “reduction in MUC1 expression” value in series [2] (setting [3]) was “strong inhibition of MUC1 expression”. Moreover, the MUC1 expression entry is recorded as “significant reduction in MUC1 expression” in series [2] (48 hours, 5E5 blot) and “significant reduction in MUC1 expression” in series [2] (48 hours, HMFG2 blot). In addition, in series [2] (48 hours), the “SDS-PAGE migration of MUC1 (O-glycan extension)” value is recorded as “marked shift in migration to lower molecular weight migrating species”.

Consider `CC(=O)N[C@H]1[C@H](OCc2ccccc2)O[C@H](CO)[C@H](O)[C@@H]1O` [GalNAcβ-benzyl], for which, in series [1], the MUC5AC in media result is recorded as “diminished secretion of MUC5AC”. Further, in the series with MUC5AC in HT29MTX cells, the “intracellular staining of MUC5AC” value was “clearly diminished intracellular staining”. Moreover, the storage phenotype result in the series with MUC5AC in HT29MTX cells is listed as “did not lead to any storage disease”. For the same molecule, the “reduction in MUC1 expression” value in series [2] (setting [3]) is “strong inhibition of MUC1 expression; also recorded: same or better reduction in MUC1 expression as treatment with GalNAcα-benzyl”; in series [2] (36 hours, HMFG2 blot) it was “same or better reduction in MUC1 expression as treatment with GalNAcα-benzyl”. In series [2] (36 hours), the “SDS-PAGE migration of MUC1 (O-glycan extension)” value was “no change in the migration of MUC1”.

With `CC(=O)N[C@H]1[C@@H](OCc2ccccc2)O[C@H](CO)[C@@H](O)[C@@H]1O` [GlcNAcα-benzyl], the MUC5AC in media result in series [1] is reported as “detected MUC5AC in media”. Besides, in series [2] (48 hours, HMFG2 blot), the MUC1 expression entry was “no effect on MUC1 expression and O-glycosylation compared to untreated cells”.
